Reference: the CheMixHub viscosity set

Assay: xn = mol fraction of the nth substance listed

Fc1c(F)c(F)c(F)c(F)c1F + Cc1cccc(C)n1
viscosity [mPa·s], 101.33 kPa
Settings | x2 = 0.091 | x2 = 0.165 | x2 = 0.229 | x2 = 0.283 | x2 = 0.497 | x2 = 0.5 | x2 = 0.712 | x2 = 0.767 | x2 = 0.832 | x2 = 0.908
293.15 K | – | 0.9415 | 0.9457 | – | – | 0.9333 | 0.8943 | 0.8824 | 0.8673 | 0.8549
298.15 K | – | 0.869 | 0.8709 | 0.8665 | 0.8598 | 0.8584 | 0.8268 | 0.8175 | 0.8052 | 0.7928
308.15 K | – | 0.7494 | 0.7485 | 0.7439 | 0.7372 | 0.736 | 0.7137 | 0.7072 | 0.6997 | 0.6916
318.15 K | 0.6629 | 0.6586 | 0.6562 | – | 0.6401 | 0.6401 | 0.6252 | 0.6209 | 0.616 | 0.611

Oc1cccc2ccccc12 + CCCCCOC(C)=O
Settings | viscosity [mPa·s]
298.15 K, 101 kPa, x2 = 0.5 | 1.549

C1CCC(C2CCCCC2)CC1 + c1ccc2c(c1)CCCC2
viscosity [mPa·s], 102 kPa
Settings | x2 = 0.1226 | x2 = 0.2394 | x2 = 0.3504 | x2 = 0.4561 | x2 = 0.5573 | x2 = 0.6537 | x2 = 0.747 | x2 = 0.8343 | x2 = 0.9189
293.15 K | 3.67 | 3.35 | 3.08 | 2.87 | 2.7 | 2.55 | 2.44 | 2.34 | 2.28
303.15 K | 2.91 | 2.67 | 2.48 | 2.33 | 2.2 | 2.09 | 2 | 1.93 | 1.88
313.15 K | 2.36 | 2.19 | 2.04 | 1.93 | 1.83 | 1.75 | 1.68 | 1.62 | 1.58
323.15 K | 1.95 | 1.82 | 1.71 | 1.62 | 1.54 | 1.48 | 1.43 | 1.38 | 1.35

NCCNCCN + CCCCn1cc[n+](C)c1.F[B-](F)(F)F
Settings | viscosity [mPa·s]
313.15 K, 101.33 kPa, x2 = 0.8948 | 46.45

C1=Cc2cccc3cccc1c23 + CO
viscosity [mPa·s], 101 kPa
Settings | 298.15 K | 303.15 K | 308.15 K | 313.15 K | 318.15 K
x1 = 0.00471 | 0.5715 | 0.5301 | 0.494 | 0.4598 | 0.436
x1 = 0.00731 | – | 0.5362 | 0.5036 | 0.4714 | 0.4405

CCCCCCCC[N+](C)(CCCCCCCC)CCCCCCCC.[Cl-] + COC(=O)OC
Settings | viscosity [mPa·s]
298.15 K, 101 kPa, x1 = 0.65 | 534.7

OC[C@H]1O[C@@](CO)(O[C@H]2O[C@H](CO)[C@@H](O)[C@H](O)[C@H]2O)[C@@H](O)[C@@H]1O + CS(C)=O
viscosity [mPa·s], 101 kPa
Settings | 298.15 K | 308.15 K | 318.15 K
x1 = 0.006451 | 2.4 | 1.962 | 1.63
x1 = 0.01289 | 2.883 | 2.319 | 1.908
x1 = 0.01959 | 3.523 | 2.793 | 2.266
x1 = 0.0336 | 5.532 | 4.214 | 3.309
x1 = 0.04801 | 9.087 | 6.615 | 4.999
x1 = 0.05582 | 12.08 | 8.541 | 6.292
x1 = 0.06395 | 16.4 | 11.28 | 8.055
x1 = 0.07246 | 22.45 | 14.86 | 10.39
x1 = 0.08036 | 30.82 | 19.69 | 13.36
x1 = 0.09752 | 61.59 | 36.46 | 23.02
x1 = 0.1069 | 90.84 | 51.59 | 31.4
x1 = 0.117 | 139.8 | 75.48 | 43.98
x1 = 0.1263 | 211.4 | 109.3 | 61.19

C[C@H](O)C(=O)O + C[N+](C)(C)CCO.[Cl-]
101 kPa, x2 = 0.3333
Settings | viscosity [mPa·s]
303.15 K | 374.3
313.15 K | 187

CN1CCCN2CCCN=C12 + O
100 kPa
Settings | viscosity [mPa·s]
294.96 K, x1 = 0.5035 | 29.2
296.8 K, x1 = 0.1982 | 23.1
296.87 K, x1 = 0.1982 | 24.9
298.43 K, x1 = 0.5035 | 23.6
298.43 K, x1 = 0.798 | 11.2
303.69 K, x1 = 0.1982 | 15.8
308.29 K, x1 = 0.5035 | 14
308.31 K, x1 = 0.798 | 7.6
313.13 K, x1 = 0.1982 | 11.5
318.19 K, x1 = 0.798 | 5.6

CCCCC(=O)O + CCCCCCCCCO
viscosity [mPa·s], 100 kPa
Settings | x1 = 0.0827 | x1 = 0.1635 | x1 = 0.2318 | x1 = 0.3519 | x1 = 0.4517 | x1 = 0.5569 | x1 = 0.6472 | x1 = 0.7328 | x1 = 0.8691 | x1 = 0.9502
293.15 K | 10.14 | 8.95 | 8.08 | 6.89 | 6.05 | 5.25 | 4.6 | 4 | 3.09 | 2.56
303.15 K | 6.95 | 6.12 | 5.53 | 4.73 | 4.16 | 3.64 | 3.22 | 2.86 | 2.32 | 2.03
313.15 K | 5.09 | 4.64 | 4.3 | 3.78 | 3.39 | 2.99 | 2.67 | 2.38 | 1.95 | 1.71
323.15 K | 3.76 | 3.47 | 3.26 | 2.92 | 2.66 | 2.39 | 2.17 | 1.96 | 1.64 | 1.46

CC1(C)S[C@@H]2[C@H](NC(=O)[C@H](N)c3ccc(O)cc3)C(=O)N2[C@H]1C(=O)O + O
viscosity [mPa·s], 101 kPa
Settings | x1 = 9e-06 | x1 = 1.8e-05 | x1 = 2e-05 | x1 = 3.2e-05 | x1 = 3.6e-05 | x1 = 5e-05 | x1 = 6.8e-05
305.15 K | 0.7741 | 0.7672 | 0.7642 | 0.7659 | 0.7708 | 0.7668 | 0.7686
310.15 K | 0.7042 | 0.7023 | 0.6984 | 0.6991 | 0.7032 | 0.7014 | 0.7026
315.15 K | 0.6458 | 0.6448 | 0.6386 | 0.6392 | 0.6469 | 0.6401 | 0.6421

CCOC(=O)C(Cl)(Cl)Cl + O=C(O)C(Cl)(Cl)Cl
323.15 K, 101 kPa
Settings | viscosity [mPa·s]
x1 = 0.2358 | 3.172
x1 = 0.4086 | 2.346
x1 = 0.5988 | 1.742
x1 = 0.7928 | 1.334
